One assay has as its target human Bub1 (Homo sapiens (Human), UniProt O43683). Nature of the assay: Bub1 high ATP kinase assay (TR-FRET). Format: biochemical. Particulars: read-out: Bub1 high ATP (2 mM) IC50; 2 mM ATP. From the text: Bub1-inhibitory activity of compounds of the present invention at a high ATP concentration was quantified employing the Bub1 TR-FRET high ATP kinase assay as described in the following paragraphs.
N-terminally His6-tagged recombinant catalytic domain of human Bub1 (amino acids 704-1085), expressed in insect cells (Hi5) and purified by Ni-NTA affinity chromatography and subsequent size exclusion chromatography, was used as enzyme.
(In TR-FRET formats the signal depends on donor and acceptor labels being close together.)

The test system of the next assay is Ba/F3-EGFR-insSVD. Description: Ba/F3 cell survival assay, EGFR-insSVD. The class given is cell-based. Put shortly:
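Ba/F3 cells stably expressing WT EGFR or EGFR-insSVD via retrovirus, grown without IL-3 on 10 ng/mL EGF, plated at 4000 cells/well. Compound exposure 48 h at 37 °C; viability read by CellTiter-Glo luminescence.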

For assay [1], the system named is Ba/F3-EGFR-D770_N771insNPG. Description: Ba/F3 cell survival assay, EGFR D770_N771insNPG. Particulars: Mus musculus, BaF3, 48 h, read-out: BA/F3 (insNPG) IC50. The class given is cell-based. Here is the method:
(§1) 293T cells from ATCC were transfected with pBABEpuro expression constructs for mutant EGFR (V769_D770insASV, D770_N771insNPG, N771_P772insH, H773_V774insNPH, E746_A750del, L858R, D770_N771 insSVD C797S, E746_A750del C797S, L858R C797S, L861Q) or mutant ERBB2 (A775_G776insYVMA) and pCL-Eco packaging vector using Fugene-6 transfection reagent from Promega. Plates were incubated at 37° C. for 48 h. Retrovirus was harvested by filtering the media supernatant through a 0.45 μm filter.
(§2) Ba/F3 cells purchased from DSMZ were grown in RPMI+10% FBS+10 ng/mL IL-3 and infected with filtered retroviral supernatant at a 1:2 dilution. Polybrene was added to a concentration of 8 μg/mL, plates were spun for 90 min, and incubated overnight at 37° C. 2 μg/mL puromycin was added to the infected cells 24 h after infection and cells were continually grown in the presence of puromycin and 10 ng/mL IL-3. Following stably expressing Ba/F3 cell lines were generated: Ba/F3-EGFR-V769_D770insASV, Ba/F3-EGFR-D770_N771insNPG, Ba/F3-EGFR-N771_P772insH, Ba/F3-EG, Ba/F3-EGFR-H773_V774insNPH, Ba/F3-EGFR-E746_A750del, Ba/F3-EGFR-L858R, Ba/F3-EGFR-D770_N771 insSVD C797S, Ba/F3-EGFR-E746_A750del C797S, Ba/F3-EGFR-L858R C797S, Ba/F3-EGFR L861Q and Ba/F3-ERBB2-A775_G776insYVMA (Ba/F3—vector-control).
(§3) For cell survival assays, Ba/F3 cells were grown to a density of 1-2 million cells per mL, spun down and resuspended in media without IL-3, and replated at a concentration 200,000-500,000 cells per mL. The cells ectopically expressing WT EGFR plated with 10 ng/mL Millipore Culture grade EGF and Ba/F3 cells containing mutant EGFR or Mutant ERBB2 were cultivated without EGF. The cells ectopically expressing pBABEpuro empty vector were plated with 10 ng/mL IL-3.
(§4) 2 days later, cells were plated in 50 μL in a 384 well plate at a concentration of 4000 cells per well for cells assayed in the absence of IL-3 and 2000 cells per well for cells assayed in the presence of IL-3. 100 nL of compound was added to each well using a 100 nL pin head, and plates were incubated at 37° C. for 48 h.
(§5) Cell viability was measured by adding 20 μL of Cell Titer-Glo Luminescent Cell Viability Reagent diluted 1:3 in PBS. Plates were sealed with Perkin Elmer Top-Seal, inverted several times to mix, and immediately centrifuged at 1000 rpm for 2 min. Plates were incubated in low light conditions for 8-10 min and luminescence was measured.

The test system of assay [2] is Ba/F3-EGFR-V769_D770insASV. Nature of the assay: Ba/F3 cell survival assay, EGFR V769_D770insASV. The class given is cell-based. Particulars: 48 h, read-out: BA/F3 (ASV) IC50. Here is the method: as §1, §2, §3, §4, §5
Another assay has as its system Ba/F3-EGFR-N771_P772insH. Nature of the assay: Ba/F3 cell survival assay, EGFR N771_P772insH. Particulars: 48 h, read-out: BA/F3 (EGFR N771— P772insH) IC50. The class given is cell-based. Here is the method:
as §1, §2, §3, §4, §5

Assay [3] relates to Ba/F3-EGFR-H773_V774insNPH. Description: Ba/F3 cell survival assay, EGFR H773_V774insNPH. The class given is cell-based. As to conditions: Ba/F3 EGFR-H773-V774ins_NPH, 48 h, read-out: BA/F3 (EGFR H773— V774insNPH) IC50. Here is the method:
as §1, §2, §3, §4, §5

The next assay concerns Ba/F3-EGFR-E746_A750del. Nature of the assay: Ba/F3 cell survival assay, EGFR E746_A750del. Format: cell-based. Particulars: 48 h, read-out: BA/F3 (EGFR E746_A750del) IC50. On the procedure:
as §1, §2, §3, §4, §5

For assay [4], the system named is Ba/F3-EGFR-D770_N771 insSVD C797S. Nature of the assay: Ba/F3 cell survival assay, EGFR D770_N771insSVD C797S. Format: cell-based. As to conditions: Ba/F3 EGFR-D770-N771ins_SVD, 48 h, read-out: BA/F3 (EGFR 0770_N771 insSVD C797S) IC50. Here is the method: as §1, §2, §3, §4, §5
Assay [5] deals with Ba/F3-EGFR-E746_A750del C797S. Nature of the assay: Ba/F3 cell survival assay, EGFR E746_A750del C797S. The class given is cell-based. As to conditions: 48 h, read-out: BA/F3 (EGFR E746_A750del C797S) IC50. On the procedure: as §1, §2, §3, §4, §5
[6] abbreviates: read-out: BA/F3 (insSVD) IC50, cell viability, Cell Titer-Glo, 48 h, with 10 ng/mL EGF, without IL-3.

Consider four molecules from patent publication US20240307362A1 (priority 2019, published 2024).

Read-outs that look alike come from different tables or passages of the source.

Chain of human Bub1 (O43683 704-1085): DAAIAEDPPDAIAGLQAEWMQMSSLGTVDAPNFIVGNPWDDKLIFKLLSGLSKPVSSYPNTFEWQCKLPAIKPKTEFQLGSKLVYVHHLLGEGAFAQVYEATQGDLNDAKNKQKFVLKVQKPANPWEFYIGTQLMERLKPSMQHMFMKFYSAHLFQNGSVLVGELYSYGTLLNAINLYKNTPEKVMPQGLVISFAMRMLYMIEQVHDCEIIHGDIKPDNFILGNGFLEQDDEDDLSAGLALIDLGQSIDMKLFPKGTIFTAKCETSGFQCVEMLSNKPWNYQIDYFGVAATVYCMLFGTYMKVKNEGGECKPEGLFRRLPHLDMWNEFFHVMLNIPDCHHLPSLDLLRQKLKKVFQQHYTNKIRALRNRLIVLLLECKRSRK

`COc1c(Cl)cccc1Nc1c(-c2ccncc2OC[C@@H]2CCO2)[nH]c2c1C(=O)NCC2` [Example 2, 3-(3-chlor-2-methoxyanilino)-2-{3-[(2S)-oxetan-2-ylmethoxy]pyridin-4-yl}-1,5,6,7-tetrahydro-4H-pyrrolo[3,2-c]pyridin-4-on]: the IC50 was above 20000 nM at human Bub1; 10.3 nM with Ba/F3-EGFR-insSVD (Mus musculus, BaF3, 48 h, read-out: BA/F3 (insSVD) IC50, cell viability, Cell Titer-Glo, 48 h, with 10 ng/mL EGF, without IL-3); 9.76 nM in [1]; 9.73 nM in assay [2]; 5.59 nM in the assay on Ba/F3-EGFR-N771_P772insH; 30.1 nM in assay [3]. The IC50 worked out at 0.328 nM in the assay on Ba/F3-EGFR-E746_A750del, 17.5 nM in assay [4] and 0.328 nM in [5].
`COc1c(Cl)cccc1Nc1c(-c2ccncc2OCCC2CCO2)[nH]c2c1C(=O)NCC2` (single isomer, unassigned; (-)) [Example 26, (−)-3-(3-chloro-2-methoxyanilino)-2-{3-[2-(oxetan-2-yl)ethoxy]pyridin-4-yl}-1,5,6,7-tetrahydro-4H-pyrrolo[3,2-c]pyridin-4-one]: the IC50 on human Bub1 stood at 1540 nM; with Ba/F3-EGFR-insSVD (setting [6]), 7.31 nM; in assay [1], 7.64 nM; in assay [2], 9.36 nM; in the assay on Ba/F3-EGFR-N771_P772insH, 3.7 nM; in assay [3], 29.6 nM. In addition, the IC50 was found to be 0.27 nM in the assay on Ba/F3-EGFR-E746_A750del, 13.7 nM in assay [4] and 0.27 nM in [5].
Take `COc1c(Cl)cccc1Nc1c(-c2ccncc2OCC2(C)CCO2)[nH]c2c1C(=O)NCC2` (single isomer, unassigned; (+)) [Example 48, (+)-3-(3-chloro-2-methoxyanilino)-2-{3-[(2-methyloxetan-2-yl)methoxy]pyridin-4-yl}-1,5,6,7-tetrahydro-4H-pyrrolo[3,2-c]pyridin-4-one]: the IC50 on human Bub1 came out at 10300 nM; in the assay on Ba/F3-EGFR-insSVD (setting [6]) it was 9.65 nM; in assay [1], 8.52 nM; in assay [2] it was 11.4 nM; in the assay on Ba/F3-EGFR-N771_P772insH it was 5.13 nM; in assay [3], 38.3 nM. For the same molecule, the results for the IC50 (with Ba/F3-EGFR-E746_A750del; in [4]; in [5]) were 0.34 nM, 16.7 nM and 0.34 nM, respectively.
For `COc1c(Cl)cccc1Nc1c(-c2ccncc2OCC2OCC2(C)C)[nH]c2c1C(=O)NCC2` (single isomer, unassigned; (+)) [Example 50, (+)-3-(3-chloro-2-methoxyanilino)-2-{3-[(3,3-dimethyloxetan-2-yl)methoxy]pyridin-4-yl}-1,5,6,7-tetrahydro-4H-pyrrolo[3,2-c]pyridin-4-one], the IC50 on human Bub1 is above 20000 nM; in the assay with Ba/F3-EGFR-insSVD (setting [6]) it was 8.76 nM; in assay [1], 9.18 nM; in assay [2], 16.4 nM; in the assay with Ba/F3-EGFR-N771_P772insH, 7.64 nM; in [3], 45.4 nM. For the same molecule, the IC50 worked out at 0.519 nM in the assay with Ba/F3-EGFR-E746_A750del, 35.1 nM in assay [4] and 0.519 nM in assay [5].
